Positions of bridges follow the written chain, without caps; N, C: chain ends. Residues, ends and D or L forms follow the SMILES beside them.
Experiments:
[1] = Relative hydrophobicity by RP-HPLC elution of folded versus linear toxin; type: physicochemical; details: RP-HPLC C18, acetonitrile/water gradient with 0.1% TFA, qualitative
Protocol: Figure 3 Purification and activity of the DkTx folding product. (A) Purification of linear DkTx. Cleavage of the fusion protein and reduction of the disulfide bond were accomplished using hydroxylamine and DTT, respectively, as described in methods. (B) Linear DkTx was folded in 1 M NH4OAc (pH 8.0) buffer containing 1 M GdnHCl, 1 mM EDTA, 2.5 mM GSH and 0.25 mM GSSG for 5 days at 4°C. The toxins were purified using a linear gradient of 29–44% solvent B for 15 min at a flow rate of 14 ml/min, where solvent A was water containing 0.1% TFA and solvent B was acetonitrile containing 0.1% TFA. (C) Fraction 5 activated TRPV1 expressed in oocytes. Holding voltage was −60 mV.
Figure 4 HPLC profiles of DkTx during the folding reaction. The peptides were separated using a linear gradient of 5–65% solvent B for 30 min at a flow rate of 1 ml/min, where solvent A was water containing 0.1% TFA and solvent B was acetonitrile containing 0.1% TFA. (A) Oxidative folding of DkTx in redox buffer was monitored by HPLC. Asterisks indicate correctly folded DkTx. (B) HPLC chromatogram of purified DkTx. Dashed and solid arrows indicate the minor and major forms of DkTx, respectively. […]
Figure 5 Folding kinetics of K1, K2 and DkTx. […] Quantification of the folding specifies was accomplished using HPLC. The correctly folded form (%) was determined based on the areas of the HPLC peaks. […]

A657P mutant of TRPV1 [2] = experiment: Two-electrode voltage clamp recording on the A657P mutant of TRPV1; type: cell-based; details: data not shown
Protocol: (§1) Oocytes were surgically removed from anesthetized Xenopus laevis frogs in accordance with protocol 1253-12 approved by the National Institute of Neurological Disorders and Stroke Animal Care and Use Committee. Oocytes were gently shaken for 60 min in a solution of 82.5 mM NaCl, 2.5 mM KCl, 1 mM MgCl2, 5 mM HEPES and 2 mg/mL collagenase. A rat TRPV1 construct (generously provided by D. Julius, UCSF) was cloned into the pGEM-HE vector, and used to generate cRNA. The cRNA was then injected into oocytes, which were then incubated for 1–3 days at 17°C in ND-96 solution (96 mM NaCl, 2 mM KCl, 5 mM HEPES, 1 mM MgCl2 and 50 µg/mL gentamycin, titrated to pH 7.6 with NaOH). TRPV1 activity was recorded under voltage clamp using a two-electrode voltage clamp (OC-725C; Warner Instruments) in a 150-µL recording chamber. The recorded data were filtered at 1 kHz and digitized at 5 kHz using a digidata analog/digital converter and pClamp software (Molecular Devices). Microelectrode resistances were 0.1–1 MΩ when filled with 3 M KCl. The external recording solution contained 115 mM NaCl, 2.5 mM KCl, 1.5 mM MgCl2 and 10 mM HEPES, titrated to pH 7.4 with NaOH. All experiments were performed at room temperature (∼22°C).
(§2) The functional activities of DkTx, K1 and K2 were also compared by recording their electrophysiological effects on TRPV1-expressing cells.

rat TRPV1 = target: T1, rat TRPV1 (Rattus norvegicus, UniProt O35433); experiment: Two-electrode voltage clamp recording of TRPV1 activation in oocytes; type: cell-based; details: for Relative potency as TRPV1 agonist: comparison of DkTx, K1 and K2, concentration-dependence in oocytes; for Hill coefficient for activation of TRPV1 / Reversibility of TRPV1 activation after removal of the toxin / Activation of TRPV1 channels (evoked currents): rat TRPV1 in Xenopus oocytes; for Hill coefficient for activation of TRPV1: concentration-dependence; for Activation of TRPV1 channels (evoked currents): holding voltage −60 mV, DkTx applied at 1 µM
T1 construct: expressed in transfected cells; host or cells: Xenopus laevis oocytes injected with cRNA (pGEM-HE vector)
T1 sequence (O35433 whole entry): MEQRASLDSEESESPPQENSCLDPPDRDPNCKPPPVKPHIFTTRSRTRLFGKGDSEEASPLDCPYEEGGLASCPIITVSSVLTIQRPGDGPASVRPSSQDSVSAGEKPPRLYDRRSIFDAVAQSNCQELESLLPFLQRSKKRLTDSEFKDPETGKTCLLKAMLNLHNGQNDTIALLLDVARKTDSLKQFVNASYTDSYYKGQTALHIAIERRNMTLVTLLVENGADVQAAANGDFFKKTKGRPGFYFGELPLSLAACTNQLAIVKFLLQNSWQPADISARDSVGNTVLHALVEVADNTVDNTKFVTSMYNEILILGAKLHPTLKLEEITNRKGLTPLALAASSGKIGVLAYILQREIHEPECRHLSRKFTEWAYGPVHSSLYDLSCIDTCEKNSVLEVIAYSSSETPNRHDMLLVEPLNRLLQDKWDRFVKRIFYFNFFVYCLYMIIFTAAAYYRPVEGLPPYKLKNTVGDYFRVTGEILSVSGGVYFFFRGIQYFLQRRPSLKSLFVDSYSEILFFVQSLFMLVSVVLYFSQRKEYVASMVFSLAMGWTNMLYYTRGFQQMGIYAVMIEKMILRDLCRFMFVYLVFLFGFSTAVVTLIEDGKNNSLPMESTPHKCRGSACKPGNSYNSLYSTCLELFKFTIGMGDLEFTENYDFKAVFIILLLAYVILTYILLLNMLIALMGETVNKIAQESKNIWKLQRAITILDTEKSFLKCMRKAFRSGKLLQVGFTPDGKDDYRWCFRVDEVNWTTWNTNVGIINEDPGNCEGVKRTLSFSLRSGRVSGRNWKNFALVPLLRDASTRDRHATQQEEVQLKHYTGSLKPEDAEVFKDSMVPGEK
Protocol: as §1
Figure 6 Activity of K1, K2 and DkTx on TRPV1 channels. (A) Synthetic K1, K2 and DkTx activate TRPV1 channels. Oocytes were held at −60 mV and toxins were added to the recording chamber. (B) Concentration-dependence for activation of TRPV1 by the toxins.
as §2

A657P mutant of TRPV1 [3] = details: cited from earlier work
Text: as §2

Row | Compound | Hydrophobicity of the correctly folded form relative to the linear form [1] | Activation of the A657P mutant of TRPV1 (A657P mutant of TRPV1 [2]) | Relative potency as TRPV1 agonist (rat TRPV1) | Hill coefficient for activation of TRPV1 (rat TRPV1) | Reversibility of TRPV1 activation after removal of the toxin (rat TRPV1; −60 mV) | Sensitivity of the A657P mutant of TRPV1 to toxin (A657P mutant of TRPV1 [3]) | Activation of TRPV1 channels (evoked currents) (rat TRPV1) | Activation of TRPV1 channels (evoked currents) (rat TRPV1; listed as fraction 5) | Block of DkTx-evoked TRPV1 currents (rat TRPV1; currents evoked by 1 µM DkTx in oocytes, −60 mV)
1 | CC[C@H](C)[C@@H]1NC(=O)[C@H](Cc2ccccc2)NC(=O)[C@H](C)NC(=O)[C@H](CC(C)C)NC(=O)[C@@H]2CCCN2C(=O)[C@@H]2CSSC[C@@H]3NC(=O)[C@H](C(C)C)NC(=O)[C@H](CCC(=O)O)NC(=O)CNC(=O)[C@H](CCC(=O)O)NC(=O)[C@H](CCCCN)NC(=O)[C@H](C)NC(=O)[C@@H](NC(=O)[C@@H](N)CC(N)=O)CSSC[C@H](NC(=O)[C@H](CSSC[C@@H](C(=O)N[C@@H](CCC(=O)O)C(=O)N[C@@H](CCCCN)C(=O)N[C@@H](Cc4ccc(O)cc4)C(=O)N[C@@H](CCCNC(=N)N)C(=O)O)NC(=O)[C@H](Cc4ccc(O)cc4)NC(=O)[C@@H]4CCCN4C1=O)NC(=O)[C@H](CCCCN)NC(=O)[C@H](CO)NC(=O)CNC(=O)[C@H](Cc1c[nH]c4ccccc14)NC(=O)CNC3=O)C(=O)N[C@@H](Cc1c[nH]cn1)C(=O)NCC(=O)N[C@@H](CC(C)C)C(=O)N[C@@H](CC(=O)O)C(=O)N2 [K2] (H-NCAKEGEVCGWGSKCCHGLDCPLAFIPYCEKYR-OH; disulfide 2-16, 9-21, 15-29 (inferred); N-terminus and C-terminus assumed) | more hydrophobic than the linear or misfolded forms | neither toxin activated the channel | more active than K1 | about 4 | readily reversible |  |  |  | 
2 | GDCAKEGEVCSWGKKCCDLDNFYCPMEFIPHCKKYKPYVPVTTNCAKEGEVCGWGSKCCHGLDCPLAFIPYCEKYR (disulfide 3-17, 10-24, 16-32, 45-59, 52-64, 58-72 (inferred)) [DkTx, double-knot toxin] | more hydrophobic than the linear form |  | most potent TRPV1 agonist among the three toxins | ~1 | decayed slowly | insensitive | evoked large currents | robustly activated TRPV1 channels | 
3 | N.N.N.N.N.N.N.N.N.N.N.N.N.N.[Cl-].[Cl-].[Cl-].[Cl-].[Cl-].[Cl-].[O-2].[O-2].[Ru+3].[Ru+3].[Ru+4] [ruthenium red, reference compound] |  |  |  |  |  |  |  |  | blocked

From article PMC3519854, “High Yield Production and Refolding of the Double-Knot Toxin, an Activator of TRPV1 Channels” (PLoS ONE, 2012)
